In patent publication US20240270821A1, “GIP/GLP1/GCG TRI-RECEPTOR AGONISTS AND USES THEREOF” (priority 2023, published 2024):
Starred links: 1 amine or outer side, 2 acyl side, 3 side chain; linkers in the order of their positions; H or OH if unused. Non-standard residues stand in square brackets, D forms with d. Residues, ends and D or L forms follow the SMILES beside them. Groups on a side chain read outwards from the residue. *: point of attachment. C18 diacid = O=C(O)CCCCCCCCCCCCCCCCC(=O)*; αMePhe(2-F) = C[C@](N)(Cc1ccccc1F)C(=O)O; γGlu = O=C(O)[C@H](CCC(=O)[*:2])N[*:1]; αMeY = C[C@](N)(Cc1ccc(O)cc1)C(=O)O; 4Pal = N[C@@H](Cc1ccncc1)C(=O)O; αMeL = CC(C)C[C@](C)(N)C(=O)O; αMeS = C[C@](N)(CO)C(=O)O; Orn = NCCC[C@H](N)C(=O)O; AEEA = NCCOCCOCC(=O)O; Aib = CC(C)(N)C(=O)O

Columns and labels:
Assay type in all cases: cell-based
[1] = biological target: T1, hGIPR (Homo sapiens, UniProt P48546); experiment: Functional cAMP activation in the presence of 0.1% casein (no HSA); settings: read-out: Relative cAMP EC50, hGIPR;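 further: intracellular cAMP rise after 30 min at 37 °C read by HTRF against a standard curve, scaled between buffer alone (0%) and top control ligand concentration (100%), four-parameter fit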
T1 sequence (P48546 22-466): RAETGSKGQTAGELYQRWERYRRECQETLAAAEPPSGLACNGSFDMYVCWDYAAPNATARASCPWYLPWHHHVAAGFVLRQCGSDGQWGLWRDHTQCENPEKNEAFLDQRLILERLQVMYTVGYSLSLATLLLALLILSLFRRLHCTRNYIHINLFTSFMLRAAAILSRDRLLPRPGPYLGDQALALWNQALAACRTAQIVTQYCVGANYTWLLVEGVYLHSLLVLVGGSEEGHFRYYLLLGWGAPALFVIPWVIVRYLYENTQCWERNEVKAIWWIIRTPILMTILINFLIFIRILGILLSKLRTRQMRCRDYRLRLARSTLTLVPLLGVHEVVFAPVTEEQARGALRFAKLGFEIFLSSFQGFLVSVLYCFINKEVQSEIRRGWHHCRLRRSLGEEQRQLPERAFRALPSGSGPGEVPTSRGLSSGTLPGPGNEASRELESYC

[2] = biological target: T2, hGLP-1R (Homo sapiens, UniProt P43220); experiment: as above; settings: read-out: Relative cAMP EC50, hGLP-1R;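 further: intracellular cAMP rise after 30 min at 37 °C read by HTRF, normalized between buffer only (0%) and maximal control ligand (100%), four-parameter variable-slope fit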
T2 sequence (P43220 24-463): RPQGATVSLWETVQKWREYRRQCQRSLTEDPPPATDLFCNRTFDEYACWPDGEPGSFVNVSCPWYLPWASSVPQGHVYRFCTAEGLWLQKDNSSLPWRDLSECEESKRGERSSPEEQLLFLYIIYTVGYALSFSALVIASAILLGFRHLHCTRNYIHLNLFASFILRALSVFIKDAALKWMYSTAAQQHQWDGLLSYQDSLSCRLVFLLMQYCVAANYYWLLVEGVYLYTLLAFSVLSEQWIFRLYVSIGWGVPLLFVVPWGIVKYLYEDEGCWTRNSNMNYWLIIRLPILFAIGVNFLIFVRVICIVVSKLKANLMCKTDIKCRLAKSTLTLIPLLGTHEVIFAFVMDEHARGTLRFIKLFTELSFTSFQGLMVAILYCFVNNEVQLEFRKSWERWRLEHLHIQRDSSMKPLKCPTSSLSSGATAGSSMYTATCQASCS

[3] = biological target: T1, hGIPR; experiment: Functional cAMP activity in the presence of 1% HSA; settings: read-out: cAMP Rel EC50, hGIPR
[4] = biological target: human GcgR (Homo sapiens, UniProt P47871); experiment: Functional cAMP activity in the presence of 1% HSA; settings: read-out: cAMP Rel EC50, hGcgR
Sequence of human GcgR (P47871 26-477): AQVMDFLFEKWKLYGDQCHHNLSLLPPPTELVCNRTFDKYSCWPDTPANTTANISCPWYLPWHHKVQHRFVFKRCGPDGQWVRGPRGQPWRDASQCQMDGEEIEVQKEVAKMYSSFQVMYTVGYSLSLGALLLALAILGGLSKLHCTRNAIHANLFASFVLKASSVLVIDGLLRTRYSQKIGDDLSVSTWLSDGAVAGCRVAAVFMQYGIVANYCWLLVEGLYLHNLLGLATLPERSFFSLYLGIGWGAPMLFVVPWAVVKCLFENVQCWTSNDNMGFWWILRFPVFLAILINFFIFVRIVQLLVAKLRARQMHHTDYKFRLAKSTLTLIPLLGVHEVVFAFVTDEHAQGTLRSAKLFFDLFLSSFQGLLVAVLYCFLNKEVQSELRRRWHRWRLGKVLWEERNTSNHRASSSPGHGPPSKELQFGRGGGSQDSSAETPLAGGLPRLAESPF

[5] = biological target: hGcgR (Homo sapiens, UniProt P47871); experiment: Functional cAMP activation in the presence of 0.1% casein (no HSA); settings: read-out: Relative cAMP EC50, hGcgR;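 further: intracellular cAMP rise after 30 min at 37 °C, read by HTRF against a cAMP standard curve, scaled from buffer only (0%) to maximal control ligand response (100%)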
Sequence of hGcgR (P47871 26-477): as above

[6] = biological target: T2, hGLP-1R; experiment: Functional cAMP activity in the presence of 1% HSA; settings: read-out: cAMP Rel EC50, hGLP-1R

Question: What does the source list for `CC[C@H](C)[C@H](NC(=O)[C@H](Cc1ccccc1)NC(=O)[C@H](C)NC(=O)C(C)(C)NC(=O)[C@H](CCC(N)=O)NC(=O)[C@H](C)NC(=O)[C@H](CCCCNC(=O)COCCOCCNC(=O)CC[C@H](NC(=O)CCCCCCCCCCCCCCCCC(=O)O)C(=O)O)NC(=O)[C@H](CCCCN)NC(=O)[C@H](CC(=O)O)NC(=O)[C@H](CC(C)C)NC(=O)[C@](C)(CC(C)C)NC(=O)[C@@H](NC(=O)[C@H](CO)NC(=O)[C@H](Cc1ccncc1)NC(=O)[C@H](CC(=O)O)NC(=O)[C@H](CO)NC(=O)[C@@H](NC(=O)[C@](C)(Cc1ccccc1F)NC(=O)[C@@H](NC(=O)CNC(=O)[C@H](CCC(N)=O)NC(=O)C(C)(C)NC(=O)[C@@H](N)Cc1ccc(O)cc1)[C@@H](C)O)[C@@H](C)O)[C@@H](C)CC)C(=O)N[C@@H](CCC(=O)O)C(=O)N[C@@H](Cc1ccc(O)cc1)C(=O)N[C@@H](CC(C)C)C(=O)N[C@@H](CCC(=O)O)C(=O)N[C@@H](CCC(=O)O)C(=O)NCC(=O)NCC(=O)N1CCC[C@H]1C(=O)N[C@@H](CO)C(=O)N[C@@H](CO)C(=O)NCC(=O)N[C@@H](C)C(=O)N1CCC[C@H]1C(=O)N1CCC[C@H]1C(=O)N1CCC[C@H]1C(=O)N[C@@H](CCC(=O)O)C(N)=O` [Example 445] (H-Y[Aib]QGT[αMePhe(2-F)]TSD[4Pal]SI[αMeL]LDKK([AEEA-γGlu-C18 diacid])AQ[Aib]AFIEYLEEGGPSSGAPPPE-NH2)?
Answer: EC50 [1]: 0.0206 nM; EC50 [2]: 0.731 nM; EC50 [3]: 2.41 nM; EC50 [4]: 448 nM; EC50 [5]: 10.1 nM; EC50 [6]: 23.2 nM

Question: `CC[C@H](C)[C@H](NC(=O)[C@H](Cc1ccccc1)NC(=O)[C@H](C)NC(=O)C(C)(C)NC(=O)[C@H](CCC(N)=O)NC(=O)[C@H](C)NC(=O)[C@H](CCCCNC(=O)CC[C@H](NC(=O)CC[C@H](NC(=O)CCCCCCCCCCCCCCCCC(=O)O)C(=O)O)C(=O)O)NC(=O)[C@H](CCCCN)NC(=O)[C@H](CC(=O)O)NC(=O)[C@H](CC(C)C)NC(=O)[C@](C)(CC(C)C)NC(=O)[C@@H](NC(=O)[C@H](CO)NC(=O)[C@H](Cc1ccncc1)NC(=O)[C@H](CC(=O)O)NC(=O)[C@H](CO)NC(=O)[C@@H](NC(=O)[C@](C)(Cc1ccccc1F)NC(=O)[C@@H](NC(=O)CNC(=O)[C@H](CCC(N)=O)NC(=O)C(C)(C)NC(=O)[C@@H](N)Cc1ccc(O)cc1)[C@@H](C)O)[C@@H](C)O)[C@@H](C)CC)C(=O)N[C@@H](CCC(=O)O)C(=O)N[C@@H](Cc1ccc(O)cc1)C(=O)N[C@@H](CC(C)C)C(=O)N[C@@H](CO)C(=O)N[C@@H](CCC(=O)O)C(=O)NCC(=O)NCC(=O)N1CCC[C@H]1C(=O)N[C@@H](CO)C(=O)N[C@@H](CO)C(=O)NCC(=O)N[C@@H](C)C(=O)N1CCC[C@H]1C(=O)N1CCC[C@H]1C(=O)N1CCC[C@H]1C(=O)N[C@@H](CO)C(N)=O` [Example 446] (H-Y[Aib]QGT[αMePhe(2-F)]TSD[4Pal]SI[αMeL]LDKK([γGlu-γGlu-C18 diacid])AQ[Aib]AFIEYLSEGGPSSGAPPPS-NH2) was tested. Which EC50 [1] did it give?
Answer: Its EC50 is 0.0351 nM.

Question: What about the EC50 [2] of the same compound?
Answer: The EC50 was 0.696 nM.

Question: What about the EC50 [3] of the same compound?
Answer: Its EC50 is 3.01 nM.

Question: And the EC50 [4]?
Answer: Its EC50 is 516 nM.

Question: What about the EC50 [5] of the same compound?
Answer: The EC50 was 8.34 nM.

Question: And the EC50 [6]?
Answer: The EC50 was 24.5 nM.

Question: `CC[C@H](C)[C@H](NC(=O)[C@H](CC(C)C)NC(=O)[C@](C)(Cc1ccc(O)cc1)NC(=O)[C@@H](CCC(=O)O)NC(=O)[C@@H](NC(=O)[C@H](Cc1ccccc1)NC(=O)[C@H](CCCN)NC(=O)C(C)(C)NC(=O)[C@H](CCC(N)=O)NC(=O)[C@H](C)NC(=O)[C@H](CCCCNC(=O)CC[C@H](NC(=O)CC[C@H](NC(=O)CCCCCCCCCCCCCCCCC(=O)O)C(=O)O)C(=O)O)NC(=O)[C@H](CCCN)NC(=O)[C@H](CC(=O)O)NC(=O)[C@H](CC(C)C)NC(=O)[C@](C)(CC(C)C)NC(=O)[C@H](CCC(=O)O)NC(=O)[C@](C)(CO)NC(=O)[C@H](Cc1ccncc1)NC(=O)[C@H](CC(=O)O)NC(=O)[C@H](CO)NC(=O)[C@@H](NC(=O)[C@](C)(Cc1ccccc1F)NC(=O)[C@@H](NC(=O)CNC(=O)[C@H](CCC(N)=O)NC(=O)C(C)(C)NC(=O)[C@@H](N)Cc1ccc(O)cc1)[C@@H](C)O)[C@@H](C)O)[C@@H](C)CC)C(=O)N[C@@H](CCC(=O)O)C(=O)NCC(=O)NCC(=O)N1CCC[C@H]1C(=O)N[C@@H](CO)C(=O)N[C@@H](CO)C(=O)NCC(=O)N[C@@H](CCC(=O)O)C(=O)N1CCC[C@H]1C(=O)N1CCC[C@H]1C(=O)N1CCC[C@H]1C(=O)N[C@@H](CCC(=O)O)C(N)=O` [Example 447] (H-Y[Aib]QGT[αMePhe(2-F)]TSD[4Pal][αMeS]E[αMeL]LD[Orn]K([γGlu-γGlu-C18 diacid])AQ[Aib][Orn]FI[dE][αMeY]LIEGGPSSGEPPPE-NH2) was tested. Which EC50 [1] did it give?
Answer: The EC50 was 0.0177 nM.

Question: What about the EC50 [2] of the same compound?
Answer: Its EC50 is 0.214 nM.

Question: And the EC50 [3]?
Answer: The EC50 was 1.81 nM.

Question: And the EC50 [4]?
Answer: The EC50 was 1090 nM.

Question: And the EC50 [5]?
Answer: Its EC50 is 9.71 nM.

Question: And the EC50 [6]?
Answer: The EC50 was 11.3 nM.

Question: What does the source list for `CC[C@H](C)[C@H](NC(=O)[C@H](CC(C)C)NC(=O)[C@H](Cc1ccc(O)cc1)NC(=O)[C@@H](CCC(=O)O)NC(=O)[C@@H](NC(=O)[C@H](Cc1ccccc1)NC(=O)[C@H](CCCN)NC(=O)C(C)(C)NC(=O)[C@H](CCC(N)=O)NC(=O)[C@H](C)NC(=O)[C@H](CCCCNC(=O)CC[C@H](NC(=O)CC[C@H](NC(=O)CCCCCCCCCCCCCCCCC(=O)O)C(=O)O)C(=O)O)NC(=O)[C@H](CCCN)NC(=O)[C@H](CC(=O)O)NC(=O)[C@H](CC(C)C)NC(=O)[C@](C)(CC(C)C)NC(=O)[C@@H](NC(=O)[C@](C)(CO)NC(=O)[C@H](Cc1ccncc1)NC(=O)[C@H](CC(=O)O)NC(=O)[C@H](CO)NC(=O)[C@@H](NC(=O)[C@](C)(Cc1ccccc1F)NC(=O)[C@@H](NC(=O)CNC(=O)[C@H](CCC(N)=O)NC(=O)C(C)(C)NC(=O)[C@@H](N)Cc1ccc(O)cc1)[C@@H](C)O)[C@@H](C)O)[C@@H](C)CC)[C@@H](C)CC)C(=O)N[C@@H](CCC(=O)O)C(=O)NCC(=O)NCC(=O)N1CCC[C@H]1C(=O)N[C@@H](CO)C(=O)N[C@@H](CO)C(=O)NCC(=O)N[C@@H](CCC(=O)O)C(=O)N1CCC[C@H]1C(=O)N1CCC[C@H]1C(=O)N1CCC[C@H]1C(=O)N[C@@H](CCC(=O)O)C(N)=O` [Example 448] (H-Y[Aib]QGT[αMePhe(2-F)]TSD[4Pal][αMeS]I[αMeL]LD[Orn]K([γGlu-γGlu-C18 diacid])AQ[Aib][Orn]FI[dE]YLIEGGPSSGEPPPE-NH2)?
Answer: EC50 [1]: 0.0171 nM; EC50 [2]: 0.336 nM; EC50 [3]: 1.35 nM; EC50 [4]: 302 nM; EC50 [5]: 4.54 nM; EC50 [6]: 19.5 nM

Question: How did the EC50 [1] turn out when `CC[C@H](C)[C@H](NC(=O)[C@H](CC(C)C)NC(=O)[C@H](Cc1ccc(O)cc1)NC(=O)[C@@H](CCC(=O)O)NC(=O)[C@@H](NC(=O)[C@H](Cc1ccccc1)NC(=O)[C@H](CC(N)=O)NC(=O)C(C)(C)NC(=O)[C@H](CCC(N)=O)NC(=O)[C@H](C)NC(=O)[C@H](CCCCNC(=O)CC[C@H](NC(=O)CC[C@H](NC(=O)CCCCCCCCCCCCCCCCC(=O)O)C(=O)O)C(=O)O)NC(=O)[C@H](CCCN)NC(=O)[C@H](CC(=O)O)NC(=O)[C@H](CC(C)C)NC(=O)[C@](C)(CC(C)C)NC(=O)[C@@H](NC(=O)[C@](C)(CO)NC(=O)[C@H](Cc1ccncc1)NC(=O)[C@H](CC(=O)O)NC(=O)[C@H](CO)NC(=O)[C@@H](NC(=O)[C@](C)(Cc1ccccc1F)NC(=O)[C@@H](NC(=O)CNC(=O)[C@H](CCC(N)=O)NC(=O)C(C)(C)NC(=O)[C@@H](N)Cc1ccc(O)cc1)[C@@H](C)O)[C@@H](C)O)[C@@H](C)CC)[C@@H](C)CC)C(=O)N[C@@H](CCC(=O)O)C(=O)NCC(=O)NCC(=O)N1CCC[C@H]1C(=O)N[C@@H](CO)C(=O)N[C@@H](CO)C(=O)NCC(=O)N[C@@H](CCC(=O)O)C(=O)N1CCC[C@H]1C(=O)N1CCC[C@H]1C(=O)N1CCC[C@H]1C(=O)N[C@@H](CCC(=O)O)C(N)=O` [Example 449] (H-Y[Aib]QGT[αMePhe(2-F)]TSD[4Pal][αMeS]I[αMeL]LD[Orn]K([γGlu-γGlu-C18 diacid])AQ[Aib]NFI[dE]YLIEGGPSSGEPPPE-NH2) was run?
Answer: The EC50 was 0.0205 nM.

Question: And the EC50 [2]?
Answer: The EC50 was 0.568 nM.

Question: What about the EC50 [3] of the same compound?
Answer: The EC50 was 1.66 nM.

Question: And the EC50 [4]?
Answer: The EC50 was 424 nM.

Question: What about the EC50 [5] of the same compound?
Answer: The EC50 was 11.5 nM.

Question: And the EC50 [6]?
Answer: The EC50 was 18.9 nM.
